For test [1], the species on record is Mus musculus. As to the kind of experiment: Evaluated for the Log A50 value in the isolated mouse stomach assay. The test is classed as functional.
For test [2], the species on record is Mus musculus. As to the kind of experiment: The compound was evaluated for the percentage of pentagastrin control in the isolated mouse stomach assay. The format is functional.

As to `NC(=O)C(Cc1ccccc1)NC(=O)[C@H](CC(=O)O)NS(=O)(=O)c1ccc2ccccc2c1` (stereo partly specified), the “Log A50” value in test [1] is on record as -5.6. In addition, the Control in test [2] was determined as 96%.

With `Cc1ccc(S2(=O)=N[C@H](C(=O)NC(Cc3ccccc3)C(N)=O)CC(=O)O2)cc1` (stereo partly specified), the “Log A50” value in test [1] was -5.3. This molecule also gave a Control in test [2] of 56%.

As to `NC(=O)C(Cc1ccccc1)NC(=O)[C@@H]1CC(=O)OS(=O)(c2ccc3ccccc3c2)=N1` (stereo partly specified), the “Log A50” value in test [1] is recorded as -8.1. In test [2], the Control is on record as 67%.

The values above are taken from ChEMBL document CHEMBL1126406, “Novel oxathiazinones as gastrin ligands : Unexpected preducts from the schotten-baumann reaction of arylsulphonyl chlorides with derivatives of aspartic acid” (1992).
